Assays:
[1] = test system: NFκB p65 cytoplasm-to-nucleus translocation in HUVEC cells; assay: TNFα-induced NFκB cytoplasm-nucleus translocation in HUVEC (FLIN); format: cell-based, human
Procedure: The cells used in these studies were primary human umbilical vein endothelial cells (HUVEC) obtained from Clonetics Corporation. The cells were maintained in culture under standard conditions and passaged using Clonetics' proprietary EGM medium and reagent system. Since they are not transformed, HUVECs, generally become senescent after nine or ten passages.
Prior to assay, cells were transferred to 96-well plates (Packard black ViewPlate) and incubated overnight to yield cell monolayers that were approximately 25% confluent. Plates used to determine a statistically optimal cell density for the assay were made by seeding wells at 5000, 2500, and 1000 cells per well and incubating overnight. […] Translocation of NFκB from the cytoplasm to the nucleus was assessed by visual examination of sample wells with a confocal microscope system. […]
Fractional Localized Intensity Measurements on TNFα-induced NFκB Cytoplasm-Nucleus Translocation: Immunofluorescent staining of the NFκB p65 regulatory subunit allows for easy characterization of the intercellular NFκB distribution by visual inspection of images acquired during scanning. The majority of fluorescence lies outside the nuclear area in unstimulated cells, while a substantial amount co-locates with the nuclear mask subsequent to maximal stimulation with TNFα (FIG. 11). […]

[2] = test system: NFκB p65 cytoplasm-to-nucleus translocation in HUVEC cells; conditions: previous reports [Ding et al.]; cited from earlier work

tumor necrosis factor α [TNFα]
translocation of labeled NFκB, average ([1]; 200 U/ml TNFα, 15 m, average over cellular densities): 18.80%
gross p65 translocated upon maximal stimulation ([1]; maximal stimulation): ≈ 20%
fraction of p65 to translocate on stimulus, of gross amount in unstimulated cell cytoplasm [2]: 20%
